{
  "source": "patent US20250231185A1",
  "about": "“Coronavirus T Cell Epitopes, Megapools and Uses Thereof” (La Jolla Institute for Immunology, priority 2021, published 2025)",
  "origin": "cited, not measured here",
  "data": [
    {"test_system": "CD8+ T cells", "conditions": "CD8R (D) megapool epitopes; dominant = recognized by 3 or more donors/different studies; cited from earlier work", "values": [
      {"substance": "1712 (TVLSFCAFAV) [compound 1712]", "Dominant": "Yes (more dominant epitopes are defined by being recognized by 3 or more donors/different studies)"},
      {"substance": "1725 (FYAYLRKHF) [compound 1725]", "Dominant": "Yes (more dominant epitopes are defined by being recognized by 3 or more donors/different studies)"},
      {"substance": "1672 (TLACFVLAAV) [compound 1672]", "Dominant": "Yes (more dominant epitopes are defined by being recognized by 3 or more donors/different studies)"},
      {"substance": "1748 (MMISAGFSL) [compound 1748]", "Dominant": "Yes (more dominant epitopes are defined by being recognized by 3 or more donors/different studies)"},
      {"substance": "1667 (YVYSRVKNL) [compound 1667]", "Dominant": "Yes (more dominant epitopes are defined by being recognized by 3 or more donors/different studies)"},
      {"substance": "1697 (QQQQGQTVTK) [compound 1697]", "Dominant": "Yes (more dominant epitopes are defined by being recognized by 3 or more donors/different studies)"},
      {"substance": "1694 (LALLLLDRL) [compound 1694]", "Dominant": "Yes (more dominant epitopes are defined by being recognized by 3 or more donors/different studies)"},
      {"substance": "1750 (NLWNTFTRL) [compound 1750]", "Dominant": "Yes (more dominant epitopes are defined by being recognized by 3 or more donors/different studies)"},
      {"substance": "1812 (RARSVSPKL) [compound 1812]", "Dominant": "Yes (more dominant epitopes are defined by being recognized by 3 or more donors/different studies)"},
      {"substance": "1806 (VYFLQSINF) [compound 1806]", "Dominant": "Yes (more dominant epitopes are defined by being recognized by 3 or more donors/different studies)"},
      {"substance": "1689 (SPRWYFYYL) [compound 1689]", "Dominant": "Yes (more dominant epitopes are defined by being recognized by 3 or more donors/different studies)"},
      {"substance": "1797 (CTDDNALAYY) [compound 1797]", "Dominant": "Yes (more dominant epitopes are defined by being recognized by 3 or more donors/different studies)"},
      {"substance": "1714 (YTMADLVYAL) [compound 1714]", "Dominant": "Yes (more dominant epitopes are defined by being recognized by 3 or more donors/different studies)"},
      {"substance": "1818 (LEYHDVRVVL) [compound 1818]", "Dominant": "Yes (more dominant epitopes are defined by being recognized by 3 or more donors/different studies)"},
      {"substance": "1746 (SYATHSDKF) [compound 1746]", "Dominant": "Yes (more dominant epitopes are defined by being recognized by 3 or more donors/different studies)"},
      {"substance": "1721 (VVDKYFDCY) [compound 1721]", "Dominant": "Yes (more dominant epitopes are defined by being recognized by 3 or more donors/different studies)"},
      {"substance": "1773 (FLPRVFSAV) [compound 1773]", "Dominant": "Yes (more dominant epitopes are defined by being recognized by 3 or more donors/different studies)"}
    ]},
    {"test_system": "CD8+ T cells", "conditions": "CD8RE megapool peptides (non-spike SARS-CoV-2 antigens); dominant epitope Yes/No; cited from earlier work", "values": [
      {"substance": "3045 (HLVDFQVTI) [compound 3045]", "Dominant": "Yes (more dominant epitopes are defined by being recognized by 3 or more donors/different studies)"},
      {"substance": "3027 (FTYASALWEI) [compound 3027]", "Dominant": "Yes (more dominant epitopes are defined by being recognized by 3 or more donors/different studies)"},
      {"substance": "2979 (IEYPIIGDEL) [compound 2979]", "Dominant": "Yes (more dominant epitopes are defined by being recognized by 3 or more donors/different studies)"},
      {"substance": "3036 (FVRATATIPI) [compound 3036]", "Dominant": "Yes (more dominant epitopes are defined by being recognized by 3 or more donors/different studies)"},
      {"substance": "2907 (TLACFVLAAV) [compound 2907]", "Dominant": "Yes (more dominant epitopes are defined by being recognized by 3 or more donors/different studies)"},
      {"substance": "2944 (LPAADLDDF) [compound 2944]", "Dominant": "Yes (more dominant epitopes are defined by being recognized by 3 or more donors/different studies)"},
      {"substance": "2949 (YTMADLVYAL) [compound 2949]", "Dominant": "Yes (more dominant epitopes are defined by being recognized by 3 or more donors/different studies)"},
      {"substance": "2927 (NPANNAAIVL) [compound 2927]", "Dominant": "Yes (more dominant epitopes are defined by being recognized by 3 or more donors/different studies)"},
      {"substance": "2984 (KQFDTYNLW) [compound 2984]", "Dominant": "Yes (more dominant epitopes are defined by being recognized by 3 or more donors/different studies)"},
      {"substance": "2902 (YVYSRVKNL) [compound 2902]", "Dominant": "Yes (more dominant epitopes are defined by being recognized by 3 or more donors/different studies)"},
      {"substance": "2985 (NLWNTFTRL) [compound 2985]", "Dominant": "Yes (more dominant epitopes are defined by being recognized by 3 or more donors/different studies)"},
      {"substance": "3051 (IQYIDIGNY) [compound 3051]", "Dominant": "Yes (more dominant epitopes are defined by being recognized by 3 or more donors/different studies)"},
      {"substance": "2915 (RYRIGNYKL) [compound 2915]", "Dominant": "Yes (more dominant epitopes are defined by being recognized by 3 or more donors/different studies)"},
      {"substance": "2901 (SLVKPSFYV) [compound 2901]", "Dominant": "Yes (more dominant epitopes are defined by being recognized by 3 or more donors/different studies)"},
      {"substance": "2970 (VYRGTTTYKL) [compound 2970]", "Dominant": "Yes (more dominant epitopes are defined by being recognized by 3 or more donors/different studies)"}
    ]},
    {"test_system": "CD8+ T cells", "conditions": "Nelde et al.; HLA-A*01:01 restricted; cited from earlier work", "units": {"positive in donors tested": "%"}, "values": [
      {"substance": "TTDPSFLGRY [nsp3 819-828]", "positive in donors tested": 83}
    ]},
    {"test_system": "CD8+ T cells", "conditions": "SARS-CoV-2-derived CD8 epitopes; dominant = recognized by 3 or more donors/different studies; cited from earlier work", "values": [
      {"substance": "687 (CTEIDPKLDNY) [compound 687]", "Dominant": "Yes (more dominant epitopes are defined by being recognized by 3 or more donors/different studies)"},
      {"substance": "661 (TTDPSFLGRY) [compound 661]", "Dominant": "Yes (more dominant epitopes are defined by being recognized by 3 or more donors/different studies)"},
      {"substance": "510 (ATEGALNTPKDHI) [compound 510]", "Dominant": "Yes (more dominant epitopes are defined by being recognized by 3 or more donors/different studies)"},
      {"substance": "547 (ILLNKHIDA) [compound 547]", "Dominant": "Yes (more dominant epitopes are defined by being recognized by 3 or more donors/different studies)"}
    ]},
    {"test_system": "CD8+ T cells", "conditions": "SARS-CoV-2 Ag S; T cell type recognizing the epitope; cited from earlier work", "values": [
      {"substance": "1329 (DAVRDPQTL) [compound 1329]", "Restriction": "CD8"},
      {"substance": "1403 (SVLNDILSR) [compound 1403]", "Restriction": "CD8"},
      {"substance": "1391 (WTFGAGAAL) [compound 1391]", "Restriction": "CD8"},
      {"substance": "1331 (TPCSFGGVSV) [compound 1331]", "Restriction": "CD8"},
      {"substance": "1318 (YQPYRVVVL) [compound 1318]", "Restriction": "CD8"},
      {"substance": "1326 (VLTESNKKF) [compound 1326]", "Restriction": "CD8"},
      {"substance": "1364 (KTSVDCTMYI) [compound 1364]", "Restriction": "CD8"},
      {"substance": "1373 (EVFAQVKQIY) [compound 1373]", "Restriction": "CD8"},
      {"substance": "1308 (KPFERDISTEI) [compound 1308]", "Restriction": "CD8"},
      {"substance": "1357 (NSIAIPTNF) [compound 1357]", "Restriction": "CD8"}
    ]},
    {"test_system": "CD8+ T cells", "conditions": "T cell subset (CD4 or CD8) recognizing the SARS-CoV-2-derived epitope; cited from earlier work", "values": [
      {"substance": "617 (LYDKLVSSF) [compound 617]", "Restriction": "CD8"},
      {"substance": "633 (MLAHAEETR) [compound 633]", "Restriction": "CD8"},
      {"substance": "588 (FELDERIDKVL) [compound 588]", "Restriction": "CD8"},
      {"substance": "676 (VRETMSYLF) [compound 676]", "Restriction": "CD8"},
      {"substance": "687 (CTEIDPKLDNY) [compound 687]", "Restriction": "CD8"},
      {"substance": "562 (VPHVGEIPV) [compound 562]", "Restriction": "CD8"},
      {"substance": "661 (TTDPSFLGRY) [compound 661]", "Restriction": "CD8"},
      {"substance": "511 (GTRNPANNA) [compound 511]", "Restriction": "CD8"},
      {"substance": "545 (TPSGTWLTY) [compound 545]", "Restriction": "CD8"},
      {"substance": "612 (LLSAGIFGA) [compound 612]", "Restriction": "CD8"},
      {"substance": "510 (ATEGALNTPKDHI) [compound 510]", "Restriction": "CD8"},
      {"substance": "603 (TIEVNSFSGY) [compound 603]", "Restriction": "CD8"},
      {"substance": "631 (KQEILGTVSW) [compound 631]", "Restriction": "CD8"},
      {"substance": "600 (LEMELTPVV) [compound 600]", "Restriction": "CD8"},
      {"substance": "586 (QGYKSVNITF) [compound 586]", "Restriction": "CD8"},
      {"substance": "572 (VRSIFSRTL) [compound 572]", "Restriction": "CD8"},
      {"substance": "647 (HLDGEVITF) [compound 647]", "Restriction": "CD8"},
      {"substance": "547 (ILLNKHIDA) [compound 547]", "Restriction": "CD8"},
      {"substance": "609 (VVVNAANVY) [compound 609]", "Restriction": "CD8"},
      {"substance": "644 (YYTSNPTTF) [compound 644]", "Restriction": "CD8"},
      {"substance": "585 (DTVIEVQGYK) [compound 585]", "Restriction": "CD8"},
      {"substance": "619 (KIAEIPKEEV) [compound 619]", "Restriction": "CD8"},
      {"substance": "691 (YYKKDNSY) [compound 691]", "Restriction": "CD8"},
      {"substance": "648 (GEVITFDNL) [compound 648]", "Restriction": "CD8"},
      {"substance": "686 (YTTTIKPVTY) [compound 686]", "Restriction": "CD8"}
    ]},
    {"test_system": "CD8+ T cells", "conditions": "T cell type (CD4 or CD8) recognizing the SARS-CoV-2 epitope; cited from earlier work", "values": [
      {"substance": "1040 (VVNARLRAK) [compound 1040]", "Restriction": "CD8"},
      {"substance": "1068 (YNLWNTFTRL) [compound 1068]", "Restriction": "CD8"},
      {"substance": "965 (FVVEVVDKY) [compound 965]", "Restriction": "CD8"},
      {"substance": "1045 (ILGLPTQTV) [compound 1045]", "Restriction": "CD8"},
      {"substance": "928 (YFVVKRHTF) [compound 928]", "Restriction": "CD8"},
      {"substance": "988 (RLANECAQV) [compound 988]", "Restriction": "CD8"},
      {"substance": "1075 (GRVDGQVDL) [compound 1075]", "Restriction": "CD8"},
      {"substance": "981 (VENPHLMGWD) [compound 981]", "Restriction": "CD8"},
      {"substance": "1086 (VAMPNLYKM) [compound 1086]", "Restriction": "CD8"},
      {"substance": "1096 (YVMHANYIF) [compound 1096]", "Restriction": "CD8"},
      {"substance": "976 (SAKNRARTV) [compound 976]", "Restriction": "CD8"},
      {"substance": "982 (MPNMLRIMASL) [compound 982]", "Restriction": "CD8"},
      {"substance": "1014 (NTSRYWEPEFY) [compound 1014]", "Restriction": "CD8"},
      {"substance": "1043 (RPQIGVVREF) [compound 1043]", "Restriction": "CD8"},
      {"substance": "1076 (KVDGVVQQL) [compound 1076]", "Restriction": "CD8"},
      {"substance": "960 (AISDYDYYR) [compound 960]", "Restriction": "CD8"},
      {"substance": "1098 (WRNTNPIQL) [compound 1098]", "Restriction": "CD8"},
      {"substance": "1038 (IPARARVECF) [compound 1038]", "Restriction": "CD8"},
      {"substance": "968 (KSAGFPFNK) [compound 968]", "Restriction": "CD8"},
      {"substance": "959 (AAISDYDYY) [compound 959]", "Restriction": "CD8"}
    ]}
  ]
}
